The record followed here is US20210024483A1, “HETEROCYLCOALKENYL DERIVATIVES USEFUL AS AGONISTS OF THE GPR120 AND / OR GPR40” (Janssen Pharmaceutica NV, priority 2018, published 2021).

The target in experiment [1] is T1, Human GPR120 short form (short splice variant, NM_001195755.1) (Homo sapiens, UniProt Q5NUL3).
T1 construct: expressed in transfected cells; host or cells: HEK293
T1 sequence (Q5NUL3 1-361): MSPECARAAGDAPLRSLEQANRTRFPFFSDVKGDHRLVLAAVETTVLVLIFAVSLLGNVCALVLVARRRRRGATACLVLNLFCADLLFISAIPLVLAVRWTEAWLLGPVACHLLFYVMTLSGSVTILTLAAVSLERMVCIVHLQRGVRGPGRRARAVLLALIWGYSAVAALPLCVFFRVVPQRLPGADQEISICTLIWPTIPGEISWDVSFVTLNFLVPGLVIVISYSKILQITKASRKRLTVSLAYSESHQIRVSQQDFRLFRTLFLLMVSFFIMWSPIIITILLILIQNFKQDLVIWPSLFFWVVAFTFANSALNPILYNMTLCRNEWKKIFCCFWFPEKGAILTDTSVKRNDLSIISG
Briefly: Human GPR120 Calcium Flux Assay. It is filed as cell-based. The following applies: HEK-293 cells, 4200 cells/well, read-out: Human GPR120 Calcium Flux Assay Procedure B EC50. An excerpt:
In Vitro Assay: Human GPR120 in Calcium Flux Assay
This in vitro assay serves to assess test compound agonist activity against the short splice variant (SVS with Accession number NM_001195755.1 confirmed by sequencing data) of the GPR120 receptor. The Human Short splice variant #2 (NM_001195755.1) is missing an in-frame coding exon compared to variant 1 (the Human Long splice variant NM_181745.3), resulting in a shorter isoform (GPR120-S) lacking a 16 aa protein segment compared to isoform GPR120-L. The assay platform utilizes HEK-293 cells stably transfected to express the Human GPR120 short form. These cells are first loaded with the Ca^+2 sensitive dye, Fluo-4 NW. Upon stimulation, intracellular released Ca^+2 can bind to the dye and alter its fluorescence intensity. This increase in fluorescence signal, and thus the flux in intracellular [Ca^2+], is detected and quantitated by fluorescence imaging using a FLIPR reader. The effect of the agonist is measured as a function of concentration and used to calculate an EC50 based upon a response curve. […]
In this procedure 4200 cells/well were employed.
A Human GPR120 clone (Genbank accession number NM_001195755.1) was placed into the pcDNA3.1 mammalian expression vector carrying the neomycin resistance gene. A stable mammalian cell was generated by placing the above clone into a HEK293 background. Clonal cells responding to long chain fatty acids had expression levels of GPR120 confirmed by RT-qPCR. Human HEK-GPR120 cells were cultured in Dulbecco's Modified Eagle's Medium (DMEM)/F12 medium supplemented with 10% fetal bovine serum (FBS), 1% L-Glutamine and 1% penicillin/streptomycin and 0.5 mg/ml G-418. Cells were split 2 times a week to keep the cells in the log-phase growth.
In preparation for the assay, HEK cells stably transfected with Human GPR120 (2.5K cells per well in 25 uL growth medium) were seeded into 384-well plates and then incubated overnight (37° C., 5% CO2). The next day, the media was changed to 20 μL assay buffer and the cell starved for 1 h at 37° C. The dye loading solution (2× dye) was prepared using 10 mL assay buffer, 100 μL of 250 mM probenecid, 1 bottle of Component A, and 20 μl of dye in DMSO. Twenty μL of the 2× dye loading buffer was then added to each well. The plates were incubated at 37° C. for 30 min, then at room temperature for an additional 15 minutes, before performing the assay on FLIPR.
The assay was performed on a FLIPR plate reader using the following parameters. Baseline was read for 10 seconds at 1 sec intervals. The program was set to transfer 10 μL of ligand from compound plate to cell plate after baseline reading. Aspiration was executed at: 10 μL/sec speed, 4.6 μL height; Dispensing was executed at: 30 μL/sec speed, 45 μL height. After compound addition, each well was read for 300 sec, with measurements collected at 1 sec intervals.
The kinetic data from the FLIPR was based upon a 5 minute window for data collection. The fluorescence of each sample well was used for individual calculations of a normalized RFU value, which was defined as maximum response minus the minimum response. The normalized fluorescence reading (RFU) was calculated as follows:
The data were fitted to a sigmoidal dose-response curve with a variable Hill slope (<2) using nonlinear regression with GraphPad Prism 5.0 to calculate the EC50 values. The Fitting Equation was: Y=Bottom+(Top−Bottom)/(1+10^((Log EC50−X)*HillSlope)), where X is the log of the concentration and Y is the response.
In general terms: Calcium flux is commonly read through the fluorescence of an indicator in the cells.

In another experiment the target is GPR40 (UniProt O14842). Briefly: GPR40 Calcium Flux Assay. It is filed as cell-based. To be noted: transfected HEK293 cells stably expressing human or rat GPR40; species not given. Here is the method:
Biological Example 3: In Vitro Assay
Compounds were tested in a calcium flux assay using transfected HEK293 cells stably expressing either human GPR40 or rat GPR40. Human GPR40 expressing cells were cultured in DMEM-High Glucose media supplemented with 10% fetal bovine serum, 1×L-Glutamine, 1× Penicillin/Streptomycin and 500 μg/mL G418. Rat GPR40 expressing cells were cultured in DMEM-High Glucose media supplemented with 10% fetal bovine serum and 1 μg/mL puromycin. Cells were plated into poly-D-lysine coated 384-well plates and cultured overnight in a 37° C. humidified tissue culture incubator under 5% CO2/90% O2 atmosphere.
On the day of the experiment, the culture media was replaced with assay buffer (HBSS, 20 mM HEPES, 0.1% BSA) and the cells incubated at 37° C. for 1 h. Calcium-sensitive fluorescent dye (Fluo 8 No-Wash Calcium Dye, ABD Bioquest) was then added and the cells incubated for another 30 min at 37° C. followed by 15 min at room temperature while protected from the light. The cell plate and a plate of diluted compounds of Formula (I) were loaded into a fluorescent plate reader that added compounds onto the cells while measuring the fluorescence intensity of each well. The plate reader recorded fluorescence intensity at 1 second intervals for 8 min and provided the data for analysis in an Excel format. EC50 values were calculated using Prism (GraphPad) software.

Some results are limits rather than exact numbers.

By EC50 is commonly meant the concentration giving half of the maximal effect. For `Cc1c(CCC(=O)O)ccc(OCC2=C(c3cccnc3)CCOC2)c1C` [compound 654], in experiment [1], the EC50 is above 5 µM. Take `CC(C)CC1=C(COc2c(F)cc(CCC(=O)O)cc2F)COCC1` [compound 733]: the EC50 was above 10 µM on GPR40 and 1.81 µM in experiment [1]. In the case of `Cc1c(CCC(=O)O)ccc(OCC2=C(c3ccc(F)cc3F)CCOC2)c1C` [compound 660], in experiment [1], the EC50 came to 0.149 µM.

For `O=C(O)CCc1ccc(OCC2=C(c3ccc(OC(F)(F)F)cc3)CCOC2)cc1C(F)(F)F` [compound 686], the EC50 on GPR40 was 0.74 µM; in experiment [1] it was above 5 µM. Regarding `COc1cc(Cl)ccc1C1=C(COc2ccc(CCC(=O)O)c(C)c2C)COCC1` [compound 662], the concentration for a half-maximal effect (EC50) in experiment [1] is 2.2 µM.

With `Cc1ccc(C2=C(COc3ccc(CCC(=O)O)cc3)CCOCC2)cc1F` [compound 783], the results for the 50% effective concentration (EC50) (on GPR40; in experiment [1]) were 7.88 µM and 1.36 µM, respectively. Taken in the same sequence, the figures for `Cc1ccc(CC2=C(COc3ccc(CCC(=O)O)c(C(F)(F)F)c3)COCC2)cc1` [compound 692] were 0.324 µM and above 5 µM. Taken in the same sequence, the figures for `Cc1ccc(C2=C(COc3ccc(CCC(=O)O)cc3)CCOC2)cc1F` [compound 769] were above 10 µM and 1.09 µM. In the same order, the values of `C=C(C1=C(COc2ccc(CCC(=O)O)c(C(F)(F)F)c2)COCC1)c1ccc(C(F)(F)F)cc1` [compound 705] are 0.073 µM and above 5 µM. Regarding `O=C(O)CCc1ccc(OCC2=C(C3CCCC3)CCOC2)cc1` [compound 738], the EC50 on GPR40 turned out to be 2.68 µM; in experiment [1], 0.927 µM.

Turning to `COc1cccc(C2=C(COc3ccc(CCC(=O)O)c(C)c3C)COCC2)c1` [compound 656], in experiment [1], the EC50 was 0.868 µM. For `O=C(O)CCc1ccc(OCC2=C(Cc3ccccc3)CCOC2)cc1C(F)(F)F` [compound 678], the half-maximal effective concentration (EC50) in experiment [1] was above 5 µM. Turning to `O=C(O)CCc1ccc(OCC2=C(Cc3ccc(Cl)cc3)CCOC2)cc1C(F)(F)F` [compound 696], the figures for the EC50 (on GPR40; in experiment [1]) were 0.218 µM and above 5 µM, respectively. Regarding `COc1ccc(CC2=C(COc3ccc(CCC(=O)O)c(C(F)(F)F)c3)COCC2)cc1` [compound 698], the results for the EC50 (on GPR40; in experiment [1]) were 0.335 µM and above 5 µM, respectively.

With `O=C(O)CCc1cc(F)c(OCC2=C(C3CCCC3)CCOC2)c(F)c1` [compound 736], the concentration for a half-maximal effect (EC50) on GPR40 is above 10 µM; in experiment [1] it was 0.615 µM. In the same order, the values of `CC(C)CC1=C(COc2ccc(CCC(=O)O)c(Cl)c2)COCC1` [compound 732] are 1.06 µM and above 5 µM. `Cc1c(CCC(=O)O)ccc(OCC2=C(c3ccccc3F)CCOC2)c1C` [compound 651]: the EC50 in experiment [1] turned out to be 0.202 µM. For the compound `C=C(C1=C(COc2ccc(CCC(=O)O)c(C(F)(F)F)c2)COCC1)c1ccc(F)cc1` [compound 703], the EC50 on GPR40 was 0.068 µM; in experiment [1], above 5 µM. In the same order, the values of `O=C(O)CCc1ccc(OCC2=C(Cc3ccc(Cl)cc3)CCOC2)cc1Cl` [compound 709] are 2.3 µM and above 5 µM.

With `Cc1cc(CCC(=O)O)ccc1OCC1=C(c2ccccc2)COC1` [compound 630], the EC50 in experiment [1] was determined as 0.229 µM. Same read-out and setting: next, `O=C(O)CCc1ccc(OCC2=C(c3ccccc3OC(F)(F)F)CCOC2)cc1C(F)(F)F` [compound 674]: above 5 µM.

As to `CCC(C)C1=C(COc2ccc(CCC(=O)O)c(C(F)(F)F)c2)COCC1` (centres unmarked) [compound 734], the EC50 at GPR40 came to 0.744 µM; in experiment [1], 10.1 µM.

In the case of `COc1cc(C2=C(COc3ccc(CCC(=O)O)c(C)c3C)COCC2)ccc1Cl` [compound 664], the EC50 in experiment [1] is above 5 µM.

With `CC1(C)CCC=C1C1=C(COc2ccc(CCC(=O)O)c(C(F)(F)F)c2)COCC1` [compound 670], the EC50 in experiment [1] is above 5 µM.

Take `Cc1ccc(C2=C(COc3ccc(CCC(=O)O)c(C(F)F)c3)COCC2)cc1` [compound 665]: the EC50 in experiment [1] was found to be 0.832 µM. Still for that read-out and setting: next, `Cc1ccc(C2=C(COc3ccc(CCC(=O)O)c(C)c3C)COCC2)cc1` [compound 655]: 0.094 µM; `CC(C)Oc1ccccc1C1=C(COc2ccc(CCC(=O)O)c(C(F)(F)F)c2)COCC1` [compound 677]: above 5 µM. Same read-out and setting: under `Cc1cc(C2=C(COc3ccc(CCC(=O)O)c(C)c3C)COCC2)ccc1F` [compound 661] stands 0.527 µM; under `Cc1cc(Cl)ccc1C1=C(COc2ccc(CCC(=O)O)c(C(F)(F)F)c2)COCC1` [compound 682], above 5 µM. The same measure, in the same setting: under `Cc1cc(C2=C(COc3ccc(CCC(=O)O)c(C(F)(F)F)c3)COCC2)ccc1Cl` [compound 679] stands 1.92 µM. With `Cc1cc(CCC(=O)O)ccc1OCC1=C(c2ccc(F)cc2)C[S+]([O-])C1` (centres unmarked) [compound 627], the EC50 in experiment [1] was above 5 µM. Same read-out and setting: under `COc1ccccc1C1=C(COc2ccc(CCC(=O)O)c(C(F)(F)F)c2)COCC1` [compound 676] stands above 5 µM; under `Cc1c(CCC(=O)O)ccc(OCC2=C(c3ccc(Cl)c(F)c3)CCOC2)c1C` [compound 663], 0.17 µM; under `Cc1cc(C)c(C2=C(COc3ccc(CCC(=O)O)c(C(F)(F)F)c3)COCC2)cc1C` [compound 681], above 5 µM. Consider `Cc1ccc(C2=C(COc3cc(C(F)(F)F)c(CCC(=O)O)c(C(F)(F)F)c3)COCC2)cc1` [compound 666], for which the EC50 in experiment [1] was 2.75 µM. Same read-out and setting: under `Cc1ccc(C2=C(COc3ccc(CCC(=O)O)c(C(F)(F)F)c3)COCC2)cc1C` [compound 683] stands 1.06 µM; under `O=C(O)CCc1ccc(OCC2=C(c3cccc4c3OC(F)(F)O4)CCOC2)cc1C(F)(F)F` [compound 673], above 5 µM; under `Cc1cccc(C)c1C1=C(COc2ccc(CCC(=O)O)c(Cl)c2)COCC1` [compound 669], above 5 µM.

`Cc1c(CCC(=O)O)ccc(OCC2=C(c3ccc(Cl)cc3F)CCOC2)c1C` [compound 667]: the EC50 in experiment [1] is 0.115 µM.

For the compound `Cc1cccc(C)c1C1=C(COc2ccc(CCC(=O)O)c(C(F)(F)F)c2)COCC1` [compound 671], in experiment [1], the concentration for a half-maximal effect (EC50) was above 5 µM. For the compound `O=C(O)CCc1ccc(OCC2=C(c3ccc(Cl)c(Cl)c3)CCOC2)cc1C(F)(F)F` [compound 680], the EC50 in experiment [1] came to 2.63 µM. On the same count and under the same terms, next, `Cc1ccc(C2=C(COc3ccc(CCC(=O)O)c(C(F)(F)F)c3)COCC2)cc1` [compound 668]: 0.498 µM.
